Reference: patent US9695155B2, “Herbicidal substituted pyrimidinyloxy benzene compounds” (E. I. DU PONT DE NEMOURS AND COMPANY, priority 2013, dated 2017)

Columns and labels:
[1] = system: giant foxtail; test: Test A preemergence; assay type: in vivo, Setaria faberii
Method in brief: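 Visual 0–100 rating (100 = complete control) taken about 10 d post-treatment relative to untreated checks. Preemergence: directed soil spray on sown loam/sand pots. Postemergence: seedlings 2–10 cm, 1–2 leaf. Non-phytotoxic solvent formulation with surfactant.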

[2] = system: rice; test: Test B flooded paddy test; assay type: in vivo, Oryza sativa; conditions: Flood, 250 g ai/ha; 0 to 100 scale where 0 is no effect and 100 is complete control
Method in brief: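 Seedlings are raised to two leaves, flooded to a depth of 3 cm and dosed by adding the compound to the floodwater. Water level is kept constant, and plants are scored visually versus controls 13–15 days later (0 = no effect, 100 = complete control).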

[3] = system: yellow nutsedge; test: Test C preemergence; assay type: in vivo, Cyperus esculentus; conditions: preemergence
Method in brief: (§1)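 Seeds are planted in blended loam soil and sand and treated preemergence, while seedlings in a peat moss/vermiculite medium receive postemergence sprays at 2 to 18 cm height. All plants stay in the greenhouse for 13 to 15 days before visual comparison with controls on a 0–100 scale.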

[4] = system: pigweed; test: Test C preemergence; assay type: in vivo, Amaranthus retroflexus; conditions: preemergence
Method in brief: as §1

[5] = system: soybean; test: Test C preemergence; assay type: in vivo, Glycine max; conditions: preemergence
Method in brief: as §1

[6] = system: velvetleaf; test: Test C preemergence; assay type: in vivo, Abutilon theophrasti; conditions: preemergence
Method in brief: as §1

[7] = system: blackgrass; test: Test C postemergence; assay type: in vivo, Alopecurus myosuroides; conditions: for Plant response rating (0 to 100), Blackgrass: 16 g ai/ha, 0 is no effect, 100 is complete control; for Blackgrass plant response rating: 31 g ai/ha, 13 to 15 days; for Blackgrass plant response rating / Plant response rating, Blackgrass: scale 0 to 100 (0 no effect, 100 complete control)
Method in brief: as §1

[8] = system: Italian ryegrass; test: Test C postemergence; assay type: in vivo, Lolium multiflorum; conditions: for Plant response rating (0 to 100), Ryegrass, Italian: 16 g ai/ha, 0 is no effect, 100 is complete control; for Ryegrass, Italian plant response rating: 31 g ai/ha, 13 to 15 days; for Ryegrass, Italian plant response rating / Plant response rating, Ryegrass, Italian: scale 0 to 100 (0 no effect, 100 complete control)
Method in brief: as §1

[9] = system: wheat, winter; test: Test C postemergence; assay type: in vivo, Triticum aestivum; conditions: for Plant response rating (0 to 100), Wheat: 16 g ai/ha, 0 is no effect, 100 is complete control; for Wheat plant response rating: 31 g ai/ha, 13 to 15 days; for Wheat plant response rating / Plant response rating, Wheat: scale 0 to 100 (0 no effect, 100 complete control)
Method in brief: as §1

[10] = system: lambsquarters; test: Test C postemergence; assay type: in vivo, Chenopodium album; conditions: for Plant response rating (0 to 100), Lambsquarters: 16 g ai/ha, 0 is no effect, 100 is complete control; for Lambsquarters plant response rating: 31 g ai/ha, 13 to 15 days; for Lambsquarters plant response rating / Plant response rating, Lambsquarters: scale 0 to 100 (0 no effect, 100 complete control)
Method in brief: as §1

[11] = system: yellow nutsedge; test: Test C postemergence; assay type: in vivo, Cyperus esculentus; conditions: for Plant response rating (0 to 100), Nutsedge, Yellow: 16 g ai/ha, 0 is no effect, 100 is complete control; for Nutsedge, Yellow plant response rating: 31 g ai/ha, 13 to 15 days; for Nutsedge, Yellow plant response rating / Plant response rating, Nutsedge, Yellow: scale 0 to 100 (0 no effect, 100 complete control)
Method in brief: as §1

[12] = system: pigweed; test: Test C postemergence; assay type: in vivo, Amaranthus retroflexus; conditions: for Plant response rating (0 to 100), Pigweed: 16 g ai/ha, 0 is no effect, 100 is complete control; for Pigweed plant response rating: 31 g ai/ha, 13 to 15 days; for Pigweed plant response rating / Plant response rating, Pigweed: scale 0 to 100 (0 no effect, 100 complete control)
Method in brief: as §1

[13] = system: ragweed; test: Test C postemergence; assay type: in vivo, Ambrosia elatior; conditions: for Plant response rating (0 to 100), Ragweed: 16 g ai/ha, 0 is no effect, 100 is complete control; for Ragweed plant response rating: 31 g ai/ha, 13 to 15 days; for Ragweed plant response rating / Plant response rating, Ragweed: scale 0 to 100 (0 no effect, 100 complete control)
Method in brief: as §1

[14] = system: wild oat; test: Test C postemergence; assay type: in vivo, Avena fatua; conditions: for Plant response rating (0 to 100), Oat, Wild: 16 g ai/ha, 0 is no effect, 100 is complete control; for Oat, Wild plant response rating: 31 g ai/ha, 13 to 15 days; for Oat, Wild plant response rating / Plant response rating, Oat, Wild: scale 0 to 100 (0 no effect, 100 complete control)
Method in brief: as §1

[15] = 16 g ai/ha, scale 0 to 100 (0 no effect, 100 complete control)
[16] = 62 g ai/ha, scale 0 (no effect) to 100 (complete control)
[17] = 125 g ai/ha, scale 0 (no effect) to 100 (complete control)
[18] = 125 g ai/ha, postemergence, visual rating

CCCOc1cnn(-c2c(C#N)cccc2Oc2ncc(Cl)cn2)c1 [Compound 150]
Plant response rating, Foxtail, Giant ([1]; 125 g ai/ha, 0 to 100 scale where 0 is no effect and 100 is complete control): 100
Foxtail, Giant plant response rating ([1]; 500 g ai/ha, 0 to 100 scale where 0 is no effect and 100 is complete control): 100
Plant response rating, Rice [2]: 0
Nutsedge, Yellow plant response rating [3, 15]: 0
Nutsedge, Yellow plant response rating [3, 16]: 25
Nutsedge, Yellow plant response rating [3, 17]: 40
Pigweed plant response rating [4, 15]: 55
Pigweed plant response rating [4, 16]: 100
Pigweed plant response rating [4, 17]: 100
Soybean plant response rating [5, 15]: 0
Soybean plant response rating [5, 16]: 45
Soybean plant response rating [5, 17]: 90
Velvetleaf plant response rating [6, 15]: 5
Velvetleaf plant response rating [6, 16]: 60
Velvetleaf plant response rating [6, 17]: 70
Plant response rating (0 to 100), Blackgrass ([7]; postemergence): 5
Blackgrass plant response rating ([7]; postemergence, visual rating): 5
Plant response rating, Blackgrass [7, 18]: 10
Plant response rating, Blackgrass ([7]; Postemergence, 62 g ai/ha): 10
Plant response rating (0 to 100), Ryegrass, Italian ([8]; postemergence): 0
Ryegrass, Italian plant response rating ([8]; postemergence, visual rating): 0
Plant response rating, Ryegrass, Italian [8, 18]: 5
Plant response rating, Ryegrass, Italian ([8]; Postemergence, 62 g ai/ha): 5
Plant response rating (0 to 100), Wheat ([9]; postemergence): 5
Wheat plant response rating ([9]; postemergence, visual rating): 5
Plant response rating, Wheat [9, 18]: 25
Plant response rating, Wheat ([9]; Postemergence, 62 g ai/ha): 5
Plant response rating (0 to 100), Lambsquarters ([10]; postemergence): 10
Lambsquarters plant response rating ([10]; postemergence, visual rating): 30
Plant response rating, Lambsquarters [10, 18]: 80
Plant response rating, Lambsquarters ([10]; Postemergence, 62 g ai/ha): 35
Plant response rating (0 to 100), Nutsedge, Yellow ([11]; postemergence): 0
Nutsedge, Yellow plant response rating ([11]; postemergence, visual rating): 0
Plant response rating, Nutsedge, Yellow [11, 18]: 5
Plant response rating, Nutsedge, Yellow ([11]; Postemergence, 62 g ai/ha): 15
Plant response rating (0 to 100), Pigweed ([12]; postemergence): 40
Pigweed plant response rating ([12]; postemergence, visual rating): 55
Plant response rating, Pigweed [12, 18]: 65
Plant response rating, Pigweed ([12]; Postemergence, 62 g ai/ha): 55
Plant response rating (0 to 100), Ragweed ([13]; postemergence): 30
Ragweed plant response rating ([13]; postemergence, visual rating): 30
Plant response rating, Ragweed [13, 18]: 65
Plant response rating, Ragweed ([13]; Postemergence, 62 g ai/ha): 35
Plant response rating (0 to 100), Oat, Wild ([14]; postemergence): 5
Oat, Wild plant response rating ([14]; postemergence, visual rating): 5
Plant response rating, Oat, Wild [14, 18]: 5
Plant response rating, Oat, Wild ([14]; Postemergence, 62 g ai/ha): 5

FCc1cn(-c2c(F)cccc2Oc2ncc(Cl)cn2)nn1 [Compound 154]
Foxtail, Giant plant response rating ([1]; 1000 g ai/ha, 0 to 100 scale, 0 no effect, 100 complete control, approx. 10 days): 100
Plant response rating, Rice [2]: 10
Nutsedge, Yellow plant response rating [3, 15]: 0
Nutsedge, Yellow plant response rating [3, 16]: 5
Nutsedge, Yellow plant response rating [3, 17]: 65
Pigweed plant response rating [4, 15]: 85
Pigweed plant response rating [4, 16]: 100
Pigweed plant response rating [4, 17]: 100
Soybean plant response rating [5, 15]: 50
Soybean plant response rating [5, 16]: 80
Soybean plant response rating [5, 17]: 95
Velvetleaf plant response rating [6, 15]: 85
Velvetleaf plant response rating [6, 16]: 100
Velvetleaf plant response rating [6, 17]: 100
Plant response rating (0 to 100), Blackgrass ([7]; postemergence): 0
Blackgrass plant response rating ([7]; postemergence, visual rating): 0
Plant response rating, Blackgrass [7, 18]: 0
Plant response rating, Blackgrass ([7]; Postemergence, 62 g ai/ha): 0
Plant response rating (0 to 100), Ryegrass, Italian ([8]; postemergence): 0
Ryegrass, Italian plant response rating ([8]; postemergence, visual rating): 0
Plant response rating, Ryegrass, Italian [8, 18]: 0
Plant response rating, Ryegrass, Italian ([8]; Postemergence, 62 g ai/ha): 0
Plant response rating (0 to 100), Wheat ([9]; postemergence): 0
Wheat plant response rating ([9]; postemergence, visual rating): 0
Plant response rating, Wheat [9, 18]: 5
Plant response rating, Wheat ([9]; Postemergence, 62 g ai/ha): 0
Plant response rating (0 to 100), Lambsquarters ([10]; postemergence): 20
Lambsquarters plant response rating ([10]; postemergence, visual rating): 55
Plant response rating, Lambsquarters [10, 18]: 70
Plant response rating, Lambsquarters ([10]; Postemergence, 62 g ai/ha): 60
Plant response rating (0 to 100), Nutsedge, Yellow ([11]; postemergence): 5
Nutsedge, Yellow plant response rating ([11]; postemergence, visual rating): 10
Plant response rating, Nutsedge, Yellow [11, 18]: 10
Plant response rating, Nutsedge, Yellow ([11]; Postemergence, 62 g ai/ha): 10
Plant response rating (0 to 100), Pigweed ([12]; postemergence): 25
Pigweed plant response rating ([12]; postemergence, visual rating): 30
Plant response rating, Pigweed [12, 18]: 75
Plant response rating, Pigweed ([12]; Postemergence, 62 g ai/ha): 60
Plant response rating (0 to 100), Ragweed ([13]; postemergence): 35
Ragweed plant response rating ([13]; postemergence, visual rating): 45
Plant response rating, Ragweed [13, 18]: 90
Plant response rating, Ragweed ([13]; Postemergence, 62 g ai/ha): 100
Plant response rating (0 to 100), Oat, Wild ([14]; postemergence): 0
Oat, Wild plant response rating ([14]; postemergence, visual rating): 0
Plant response rating, Oat, Wild [14, 18]: 0
Plant response rating, Oat, Wild ([14]; Postemergence, 62 g ai/ha): 0
